The term IC50 denotes the concentration at which inhibition is half-maximal. Low readings indicate greater potency, high ones weaker potency.

For the test, the target named is T1, human NK3 receptor (Homo sapiens, UniProt P29371).
T1 construct: expressed in transfected cells; host or cells: CHO cell membranes
T1 sequence (P29371 1-465): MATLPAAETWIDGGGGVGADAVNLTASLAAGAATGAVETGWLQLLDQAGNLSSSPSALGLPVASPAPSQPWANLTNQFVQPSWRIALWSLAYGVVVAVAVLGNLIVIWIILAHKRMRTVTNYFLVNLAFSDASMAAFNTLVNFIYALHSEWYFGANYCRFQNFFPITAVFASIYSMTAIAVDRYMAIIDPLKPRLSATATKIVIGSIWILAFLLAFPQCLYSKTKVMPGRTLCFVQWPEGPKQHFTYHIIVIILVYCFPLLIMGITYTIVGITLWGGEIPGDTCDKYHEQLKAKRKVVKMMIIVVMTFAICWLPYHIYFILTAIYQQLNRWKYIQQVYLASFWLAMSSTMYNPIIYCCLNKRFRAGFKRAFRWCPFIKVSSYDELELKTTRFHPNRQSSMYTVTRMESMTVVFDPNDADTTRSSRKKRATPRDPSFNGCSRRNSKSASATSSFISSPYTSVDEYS
Description: In vitro human NK3 receptor binding assay ([125I]-[MePhe7]neurokinin B, CHO cell membranes).

In turn, `CC(C)[C@H](OC(=O)NC(C)(Cc1cc2ccccc2o1)C(=O)NCCCCCCCNC(N)=O)c1ccccc1` (single isomer, unassigned) [Example 10] yielded an IC50 of 91 nM. This lies in the double-digit nanomolar range.

For `CC(C)[C@H](OC(=O)N[C@](C)(Cc1ccccc1)C(=O)NCCCCCCCCC(N)=O)c1ccccc1` [Example 1, Carbamic acid, [2-[(9-amino-9-oxononyl)amino]-1-methyl-2-oxo-1-(phenylmethyl)ethyl]-, 2-methyl-1-phenylpropyl ester, [R-(R*,S*)]-], the IC50 stood at 52 nM.

As for `CC(C)C(OC(=O)N[C@](C)(Cc1ccccc1)C(=O)NCCCCCCCCC(N)=O)c1ccc(Cl)cc1` (stereo partly shown) [Example 2, Carbamic acid, [2-[(9-amino-9-oxononyl)amino]-1-methyl-2-oxo-1-(phenylmethyl)ethyl]-, 1-(4-chlorophenyl)-2-methylpropyl ester], the IC50 was 258 nM. Against the preceding compound, the IC50 is about 5-fold higher.

For `C[C@](Cc1ccccc1)(NC(=O)OC(c1ccccc1)C1CCCC1)C(=O)NCCCCCCCCC(N)=O` (stereo partly shown) [Example 3, [1-(8-Carbamoyl-octylcarbamoyl)-1-methyl-2-phenyl-ethyl]-carbamic acid cyclopentyl-phenyl-methyl ester], the 50% inhibitory concentration (IC50) was determined as 40 nM.

On to `CC1(C)CCc2ccccc2C1OC(=O)N[C@](C)(Cc1ccccc1)C(=O)NCCCCCCCCC(N)=O` (stereo partly shown) [Example 4, [1-(8-Carbamoyl-octylcarbamoyl)-1-methyl-2-phenyl-ethyl]-carbamic acid 2,2-dimethyl-1,2,3,4-tetrahydro-naphthalen-1-yl ester], for which the IC50 stood at 102 nM.

Consider `C[C@](Cc1ccccc1)(NC(=O)OC1CCCCc2ccccc21)C(=O)NCCCCCCCCC(N)=O` (stereo partly shown) [Example 5, [1-(8-Carbamoyl-octylcarbamoyl)-1-methyl-2-phenyl-ethyl]-carbamic acid 6,7,8,9-tetrahydro-5H-benzocyclohepten-5-yl ester], for which the half-inhibitory concentration (IC50) came to 18 nM.

`CC1(C)CCCc2ccccc2C1OC(=O)N[C@](C)(Cc1ccccc1)C(=O)NCCCCCCCCC(N)=O` (stereo partly shown) [Example 6, [1-(8-Carbamoyl-octylcarbamoyl)-1-methyl-2-phenyl-ethyl]-carbamic acid 6,6-dimethyl-6,7,8,9-tetrahydro-5H-benzocyclohepten-5-yl ester] yielded an IC50 of 61 nM.

`CC(C)C(OC(=O)NC(C)(Cc1cccc(F)c1F)C(=O)NCCCOCCCNC(N)=O)c1ccccc1` (stereo not shown) [Example 11, {2-(2,3-Difluoro-phenyl}-1-methyl-1-[3-{3-ureido-propoxy)-propylcarbamoyl]-ethyl}-carbamic acid 2-methyl-1-phenyl-propyl ester] yielded an IC50 of 30 nM.

`CC(C)[C@H](OC(=O)N[C@](C)(Cc1ccccc1)C(=O)N[C@@H](Cc1ccc(O)cc1)C(=O)NCCCCCCO)c1ccccc1` [Example 12, {1-[1-(6-Hydroxy-hexylcarbamoyl)-2-(4-hydroxy-phenyl)-ethylcarbamoyl]-1-methyl-2-phenyl-ethyl}-carbamic acid 2-methyl-1-phenyl-propyl ester]: the concentration for half-maximal inhibition (IC50) amounted to 15 nM. This IC50 is about 2-fold lower than that of the compound before.

The compound `CC(C)[C@H](OC(=O)N[C@](C)(Cc1ccccc1)C(=O)N[C@@H](Cc1ccc(O)cc1)C(=O)NCCCCCCCO)c1ccccc1` [Example 13, {1-[1-(7-Hydroxy-heptylcarbamoyl)-2-(4-hydroxy-phenyl)-ethylcarbamoyl]-1-methyl-2-phenyl-ethyl}-carbamic acid 2-methyl-1-phenyl-propyl ester] registered an IC50 of 12 nM.

`CC(C)[C@@H](OC(=O)N[C@](C)(Cc1ccccc1)C(=O)NC(C)(C)c1ccccc1)c1ccccc1` [Example 15, [1-Methyl-1-(1-methyl-1-phenyl-ethylcarbamoyl)-2-phenyl-ethyl]-carbamic acid 2-methyl-1-phenyl-propyl ester] registered an IC50 of 114 nM.

The compound `CC(C)[C@@H](OC(=O)N[C@](C)(Cc1ccccc1)C(=O)N[C@@H](CO)c1ccccc1)c1ccccc1` [Example 16, [1-(2-Hydroxy-1-phenyl-ethylcarbamoyl)-1-methyl-2-phenyl-ethyl]-carbamic acid 2-methyl-1-phenyl-propyl ester] showed a half-inhibitory concentration (IC50) of 94 nM.

`CC(C)C(OC(=O)N[C@](C)(Cc1ccccc1)C(=O)N[C@@H](C)c1ccccc1)c1ccc(F)cc1` (stereo partly shown) [Example 17, [1-Methyl-2-phenyl-1-(1-phenyl-ethylcarbamoyl)-ethyl]-carbamic acid 1-(4-fluoro-phenyl)-2-methyl-propyl ester]: the IC50 came out at 982 nM.

For the origin of these results see patent publication US5554641A, “Nonpeptides as tachykinin antagonists” (priority 1995, dated 1996).
